Measurements from patent US20080050387A1, “Non-Androgen Dependent Roles for Androgen Receptor and Non-Androgen Related Inhibitors of Androgen Receptor” (priority 2003, published 2008).

Experiments:
[1] = test system: AR (DBD-LBD, LBD, DBD); experiment: Yeast two-hybrid / liquid β-gal assay hRad9 fragment / AR domains; type: cell-based, human; settings: AH109 yeast cells
Excerpt: The DBD and LBD of AR cDNA was amplified and was cloned into the NdeI and BamHI site of pGBKT7 (Clontech). Yeast strain AH109 was transformed with the vector encoding GAL4 DBD-AR-DBD-LBD fusion and was mated with yeast strain Y187 pretransformed with the human ovary […] cDNA library (Clontech). The yeast clones were selected following the manufacturer's instruction. The positive clones were confirmed by clone lift assay and purified plasmids were retransformed into yeast strain AH109 with bait plasmids. The interaction specificity was further confirmed by liquid […] assay.

[2] = test system: AR; experiment: In vitro GST pull-down assay GST-hRad9 / AR domains; type: binding, human
Protocol: The N-terminus (N), DBD, LBD, and DBD-LBD of AR were in vitro translated in the presence of [^35S] methionine using T7 polymerase and the coupled transcription/translation kit (Promega). pGEX-KG-hRad9 plasmids expressing GST-hRad9 fusion protein were transformed into BL21 (DE3) bacteria strain. 0.4 mM isopropyl-o-D-thiogalactopyranoside was added into LB medium containing transformed bacteria when the OD600 reached 0.5. Bacteria were further cultured in 30° C. for 3 h and lysed by 4 cycles of freezing-thawing in NETN buffer (20 mM Tris/pH 8.0, 0.5% NP-40, 100 mM NaCl, 6 mM MgCl2, 1 mM EDTA, 1 mM DTT, 8% glycerol, and 1 mM PMSF). The GST-hRad9 fusion proteins were purified with glutathione-beads in 4° C. Labeled proteins of AR mutants were incubated with equal amounts of GST-hRad9 in binding buffer (50 mM Hepes, 100 mM NaCl, 20 mM Tris-Cl/pH 8.0, 0.1% Tween 20, 10% glycerol, 1 mM dithiothreitol, 0.5 mM phenylmethysulfonyl fluoride, 1 mM NaF, and 0.4 mM sodium vanadate) with or without 10 nM DHT at 4° C. for 2 h. The beads were then washed with NETN buffer 4 times, resuspended in SDS-polyacrylamide loading buffer, and resolved on 10% SDS-polyacrylamide gel electrophoresis followed by autoradiograhy.

[3] = test system: AR; experiment: AR transactivation MMTV-LUC assay in PC-3 cells with hRad9; type: cell-based, human; settings: MMTV-LUC, 10 nM DHT
Protocol: (§1) PC-3, CWR22R, and LNCaP cell lines were maintained in […] supplemented with 10% fetal calf serum (FCS). Transient transfection for luciferase assays was carried out in 24-well plates (5×10^4 cells per well) using SuperFect as described previously (Lin, H. K., et al., Embo J 21:4037-48 (2002)). DNA mixtures in transfection assay were indicated in each figure. The total amount of transfected DNA was kept constant (1 μg) by adding the corresponding amounts of empty expression plasmids. After transfection, cells were cultured in RPMI-1600 supplemented with 5% charcoal-stripped FCS in the presence or absence of 10 nM dihydrotestosterone (DHT) for 18 h. Luciferase assays were performed as previously described (Yang, L., et al., J Biol Chem 278:16820-7 (2003)). In Western blotting assays, CWR22R or LNCaP cells were transfected by electroporation using 5×10^6 cells/0.4 ml of RPMI medium containing 2% FCS plus 9 μg of the indicated plasmids. 1 μg of EGFP expression vector was used for transfection efficiency. Electroporation was performed at 250 V and 950 μF using Gene Pulser II (Bio-Rad)
Target sequence in this assay (P10275 with tags, fused parts or gaps DEL79-80/DUP473-473): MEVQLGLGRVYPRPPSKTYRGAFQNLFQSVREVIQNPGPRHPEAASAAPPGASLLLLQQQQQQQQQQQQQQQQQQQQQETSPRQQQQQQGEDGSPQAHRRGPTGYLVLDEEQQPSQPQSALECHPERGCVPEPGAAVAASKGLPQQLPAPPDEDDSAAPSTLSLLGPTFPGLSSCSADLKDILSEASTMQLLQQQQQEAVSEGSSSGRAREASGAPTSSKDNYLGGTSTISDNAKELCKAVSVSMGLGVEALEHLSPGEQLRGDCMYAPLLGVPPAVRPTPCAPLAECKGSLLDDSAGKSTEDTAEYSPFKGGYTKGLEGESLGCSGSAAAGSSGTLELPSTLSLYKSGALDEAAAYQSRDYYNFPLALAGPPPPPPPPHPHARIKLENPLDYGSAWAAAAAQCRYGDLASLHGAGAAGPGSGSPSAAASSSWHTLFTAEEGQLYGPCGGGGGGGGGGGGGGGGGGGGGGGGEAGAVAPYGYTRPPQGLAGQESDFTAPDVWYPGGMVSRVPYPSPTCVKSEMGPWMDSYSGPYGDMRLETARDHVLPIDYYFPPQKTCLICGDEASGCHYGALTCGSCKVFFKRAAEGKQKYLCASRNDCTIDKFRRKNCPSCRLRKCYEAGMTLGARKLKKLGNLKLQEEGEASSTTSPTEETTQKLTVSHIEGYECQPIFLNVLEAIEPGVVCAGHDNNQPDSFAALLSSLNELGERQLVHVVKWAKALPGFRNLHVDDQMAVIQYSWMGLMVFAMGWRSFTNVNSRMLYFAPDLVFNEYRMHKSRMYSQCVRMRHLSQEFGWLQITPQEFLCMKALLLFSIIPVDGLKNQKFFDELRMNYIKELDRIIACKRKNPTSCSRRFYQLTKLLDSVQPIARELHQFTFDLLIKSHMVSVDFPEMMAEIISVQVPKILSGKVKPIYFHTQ

[4] = test system: PSA expression in LNCaP cells; experiment: DHT-mediated induction of PSA protein in LNCaP cells with hRad9; type: cell-based, human; settings: 10 nM DHT
Protocol: as §1

[5] = test system: estrogen receptor α (ERα); experiment: ERα transcriptional activity ERE-LUC in PC-3 cells with hRad9; type: cell-based; settings: cognate ligand
Sequence of estrogen receptor α (ERα) (P03372 whole entry, species assumed): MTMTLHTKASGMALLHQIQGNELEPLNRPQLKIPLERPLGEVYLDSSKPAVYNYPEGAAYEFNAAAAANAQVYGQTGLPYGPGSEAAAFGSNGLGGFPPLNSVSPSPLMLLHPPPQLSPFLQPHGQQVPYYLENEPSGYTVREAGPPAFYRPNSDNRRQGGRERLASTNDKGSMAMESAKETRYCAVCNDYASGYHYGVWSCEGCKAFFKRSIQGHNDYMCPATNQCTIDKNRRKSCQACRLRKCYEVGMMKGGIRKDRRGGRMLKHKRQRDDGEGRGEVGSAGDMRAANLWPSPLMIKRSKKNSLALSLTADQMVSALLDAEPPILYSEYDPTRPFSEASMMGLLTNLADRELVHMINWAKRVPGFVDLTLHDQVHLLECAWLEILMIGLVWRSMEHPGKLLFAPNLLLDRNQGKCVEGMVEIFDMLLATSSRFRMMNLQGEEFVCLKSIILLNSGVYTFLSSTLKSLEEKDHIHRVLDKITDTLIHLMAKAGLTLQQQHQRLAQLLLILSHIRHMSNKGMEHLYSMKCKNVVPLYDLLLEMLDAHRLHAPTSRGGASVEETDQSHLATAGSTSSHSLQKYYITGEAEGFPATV
Protocol: as §1

[6] = test system: vitamin D receptor (VDR); experiment: VDR transcriptional activity rCyp24-LUC in PC-3 cells with hRad9; type: cell-based; settings: cognate ligand
Sequence of vitamin D receptor (VDR) (P11473 whole entry, species assumed): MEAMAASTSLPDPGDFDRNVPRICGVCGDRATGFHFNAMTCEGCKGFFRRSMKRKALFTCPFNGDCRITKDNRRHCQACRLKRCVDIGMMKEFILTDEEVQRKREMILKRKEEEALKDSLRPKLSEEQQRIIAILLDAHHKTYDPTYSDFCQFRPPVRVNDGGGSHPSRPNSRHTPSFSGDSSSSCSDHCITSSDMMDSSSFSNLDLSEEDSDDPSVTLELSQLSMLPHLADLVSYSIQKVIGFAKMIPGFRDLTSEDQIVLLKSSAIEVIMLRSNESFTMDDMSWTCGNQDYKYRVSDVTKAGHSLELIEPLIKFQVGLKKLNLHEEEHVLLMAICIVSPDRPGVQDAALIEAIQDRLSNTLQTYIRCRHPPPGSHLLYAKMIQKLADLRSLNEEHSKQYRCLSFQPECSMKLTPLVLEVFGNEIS
Protocol: as §1

[7] = test system: estrogen receptor α (ERα); experiment: Mammalian two-hybrid assay hRad9 / ERα; type: cell-based; settings: PC-3 cells, presence of estrogen
Protocol: as §1, with “After transfection, cells were cultured in RPMI-1600 supplemented with 5% charcoal-stripped FCS in the presence or absence of 10 nM dihydrotestosterone (DHT) for 18 h.” left out

[8] = test system: vitamin D receptor (VDR); experiment: Mammalian two-hybrid assay hRad9 / VDR; type: cell-based; settings: PC-3 cells
Protocol: as §1

[9] = test system: AR; experiment: Mammalian two-hybrid assay hRad9 / AR in PC-3 cells; type: cell-based, human; settings: 10 nM DHT, positive control
Protocol: as §1
Target sequence in this assay (P10275 with tags, fused parts or gaps DEL79-80/DUP473-473): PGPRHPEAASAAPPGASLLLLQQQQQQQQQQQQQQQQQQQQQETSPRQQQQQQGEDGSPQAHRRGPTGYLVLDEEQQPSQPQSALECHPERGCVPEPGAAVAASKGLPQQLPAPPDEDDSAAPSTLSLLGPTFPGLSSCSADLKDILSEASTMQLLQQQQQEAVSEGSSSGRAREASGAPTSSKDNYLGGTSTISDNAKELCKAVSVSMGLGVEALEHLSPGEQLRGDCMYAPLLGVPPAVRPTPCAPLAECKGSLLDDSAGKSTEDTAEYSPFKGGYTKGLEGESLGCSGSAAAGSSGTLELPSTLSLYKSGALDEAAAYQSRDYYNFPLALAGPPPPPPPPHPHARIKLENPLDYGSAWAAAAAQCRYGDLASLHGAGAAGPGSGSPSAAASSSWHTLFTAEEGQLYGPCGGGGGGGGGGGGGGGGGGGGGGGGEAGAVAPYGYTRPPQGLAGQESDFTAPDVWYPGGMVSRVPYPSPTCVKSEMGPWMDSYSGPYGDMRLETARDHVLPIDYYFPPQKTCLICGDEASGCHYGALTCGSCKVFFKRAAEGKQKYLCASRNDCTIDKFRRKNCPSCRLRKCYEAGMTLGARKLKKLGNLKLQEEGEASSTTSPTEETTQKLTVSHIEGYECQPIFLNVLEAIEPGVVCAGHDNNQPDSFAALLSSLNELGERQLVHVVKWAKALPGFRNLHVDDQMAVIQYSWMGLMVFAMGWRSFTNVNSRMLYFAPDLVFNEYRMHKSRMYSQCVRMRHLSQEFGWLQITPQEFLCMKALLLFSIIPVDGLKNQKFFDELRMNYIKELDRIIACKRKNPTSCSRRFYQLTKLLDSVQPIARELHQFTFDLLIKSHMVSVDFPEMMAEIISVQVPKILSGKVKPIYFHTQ

[10] = test system: AR N/C interaction; experiment: Reconstituted AR transcription assay (AR N/C interaction) in PC-3 cells; type: cell-based, human; settings: 10 nM DHT, MMTV-LUC
Sequence of AR N/C interaction (P10275 557-920): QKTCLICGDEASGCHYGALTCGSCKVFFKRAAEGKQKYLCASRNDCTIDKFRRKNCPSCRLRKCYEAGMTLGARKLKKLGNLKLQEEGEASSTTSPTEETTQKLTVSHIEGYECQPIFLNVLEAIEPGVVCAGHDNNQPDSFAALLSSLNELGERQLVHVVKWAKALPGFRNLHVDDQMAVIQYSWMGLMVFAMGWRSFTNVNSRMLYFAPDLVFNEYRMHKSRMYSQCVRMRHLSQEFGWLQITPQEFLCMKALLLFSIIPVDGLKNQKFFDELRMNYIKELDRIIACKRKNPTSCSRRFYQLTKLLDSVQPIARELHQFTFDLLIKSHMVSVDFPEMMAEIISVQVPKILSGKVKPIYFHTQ
Protocol: as §1

Sequence of AR (DBD-LBD, LBD, DBD) (P10275 558-624): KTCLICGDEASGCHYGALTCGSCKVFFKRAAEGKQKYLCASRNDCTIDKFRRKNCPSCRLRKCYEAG

Row | interaction with ERα [7] | interaction with VDR [8] | Substance | interaction with GAL4-AR-DBD [1] | interaction with AR LBD and AR-DBD-LBD [2] | interaction with N-terminus of AR (aa. 1-556) and DBD alone [2] | transcriptional activity of AR [3] | DHT-mediated induction of PSA [4] | ER transcriptional activity [5] | VDR transcriptional activity [6] | DHT-dependent interaction with VP16-AR [9] | interaction between AR N- and C-terminus [10]
1 | no interaction | no interaction | hRad9: human checkpoint protein of the Rad family (SEQ ID NO:7), corepressor of AR | did not interact | interacted specifically | Neither the N-terminus of AR (aa. 1-556) nor the DBD alone adhered | decreased | potently inhibited | little inhibitory effect | little inhibitory effect | – | –
2 | – | – | HPTHSSRLWELLMEATPTM [GAL4-D30 peptide, reference compound] | – | – | – | – | – | – | – | 350 fold | blockage
